Among the data in BindingDB's records for PubMed 7651361 (Georgetown University, 1995) are Ki values, retold here.

Each structure is given as a SMILES string. Several values for one entry are separate records, joined by “and”; a condition that tells them apart may be missing. Identical values can stand only once.

The Ki is the equilibrium dissociation constant of an inhibitor or competing ligand from its target. Low readings indicate higher affinity, high ones lower affinity.

Sequence of Nicotinic acetylcholine receptor (Q62594 whole entry): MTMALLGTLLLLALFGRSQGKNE

The assay has as its target Nicotinic acetylcholine receptor (Rattus leucopus, UniProt Q62594).
As for `CN1[C@@H]2CC[C@H]1CC(OC(=O)[C@H](CO)c1ccccc1)C2` (stereo partly drawn) [CAS_51-55-8], the Ki is more than 10 µM.
For the compound `COc1cc2c3cc1Oc1cc(ccc1O)CC1c4c(cc(OC)c(O)c4Oc4ccc(cc4)CC3[N+](C)(C)CC2)CC[N+]1(C)C` (stereo not drawn) [CAS_8063-06-7], the inhibition constant (Ki) is 4.5 µM and 2.03 µM.
The figure for `C[N+](C)(C)CCCCCC[N+](C)(C)C` [Hexamethoniumdibromide] is more than 10 µM.
